From US11344554B2, “Animal and human anti-malarial agents” (Celgene Corporation, priority 2016, dated 2022)

System: Plasmodium falciparum
Test: Plasmodium falciparum in vitro [3H]-hypoxanthine parasite growth inhibition assay
Type: cell-based
Details: Erythrocyte, P. falciparum asexual blood stage parasites in human erythrocytes, [3H]-hypoxanthine uptake, read-out: Act Class (IC50 activity level)

| SMILES | IC50 [nM] |
| --- | --- |
| CC(C)(C)Nc1ncc2nc(Nc3ccc(C(F)(F)F)cc3)n(C3CCNCC3)c2n1 [Cpd 2, N2-tert-butyl-9-(piperidin-4-yl)-N8-(4-(trifluoromethyl)phenyl)-9H-purine-2,8-diamine] | 200 to 500 |
| CC(C)Nc1ncc2nc(Nc3cccc(C(F)(F)F)c3)n(C3CCNCC3)c2n1 [Cpd 66, N2-isopropyl-9-(piperidin-4-yl)-N8-(3-(trifluoromethyl)phenyl)-9H-purine-2,8-diamine] | 100 to 200 |
| FC(F)(F)c1cc(Cl)cc(Nc2nc3cnc(NC4CCOCC4)nc3n2C2CCNCC2)c1 [Cpd 51, N8-(3-chloro-5-(trifluoromethyl)phenyl)-9-(piperidin-4-yl)-N2-(tetrahydro-2H-pyran-4-yl)-9H-purine-2,8-diamine] | 100 to 200 |
| CC(C)Nc1ncc2nc(Nc3ccc(C(F)(F)F)c(Cl)c3)n(C3CCNCC3)c2n1 [Cpd 91, N8-(3-chloro-4-(trifluoromethyl)phenyl)-N2-isopropyl-9-(piperidin-4-yl)-9H-purine-2,8-diamine] | 200 to 500 |
| CC(C)(C)Nc1ncc2nc(Nc3ccc(OC(F)(F)F)cc3)n(C3CCNCC3)c2n1 [Cpd 21, N2-tert-butyl-9-(piperidin-4-yl)-N8-(4-(trifluoromethoxy)phenyl)-9H-purine-2,8-diamine] | 100 to 200 |
| CC(C)(C)Nc1ncc2nc(Nc3cccc(C#N)c3)n(C3CCNCC3)c2n1 [Cpd 50, 3-(2-(tert-butylamino)-9-(piperidin-4-yl)-9H-purin-8-ylamino)benzonitrile] | 200 to 500 |
| CC1(Nc2ncc3nc(Nc4ccc(C(F)(F)F)c(Cl)c4)n(C4CCNCC4)c3n2)CC1 [Cpd 93, N8-(3-chloro-4-(trifluoromethyl)phenyl)-N2-(1-methylcyclopropyl)-9-(piperidin-4-yl)-9H-purine-2,8-diamine] | 200 to 500 |
| FC(F)(F)c1ccc(Nc2nc3cnc(NC4CC4)nc3n2C2CCNCC2)cc1Cl [Cpd 81, N8-(3-chloro-4-(trifluoromethyl)phenyl)-N2-cyclopropyl-9-(piperidin-4-yl)-9H-purine-2,8-diamine] | 200 to 500 |
| FC(F)(F)c1ccc(Nc2nc3cnc(NC4CCC4)nc3n2C2CCNCC2)cc1Cl [Cpd 83, N8-(3-chloro-4-(trifluoromethyl)phenyl)-N2-cyclobutyl-9-(piperidin-4-yl)-9H-purine-2,8-diamine] | 100 to 200 |
| CC1(Nc2ncc3nc(Nc4ccc(C(F)(F)F)c(Cl)c4)n(C4CCNCC4)c3n2)CCCC1 [Cpd 94, N8-(3-chloro-4-(trifluoromethyl)phenyl)-N2-(1-methylcyclopentyl)-9-(piperidin-4-yl)-9H-purine-2,8-diamine] | 100 to 200 |
| CC(C)(C)Nc1ncc2nc(Nc3ccc(Cl)cc3)n(C3CCNCC3)c2n1 [Cpd 7, N2-tert-butyl-N8-(4-chlorophenyl)-9-(piperidin-4-yl)-9H-purine-2,8-diamine] | 100 to 200 |
| CC(C)(C)Nc1ncc2nc(Nc3cccc(Cl)c3F)n(C3CCNCC3)c2n1 [Cpd 47, N2-tert-butyl-N8-(3-chloro-2-fluorophenyl)-9-(piperidin-4-yl)-9H-purine-2,8-diamine] | 500 to 1200 |
| FC(F)(F)c1cc(Nc2nc3cnc(NC4CCCC4)nc3n2C2CCNCC2)ccc1Cl [Cpd 87, N8-(4-chloro-3-(trifluoromethyl)phenyl)-N2-cyclopentyl-9-(piperidin-4-yl)-9H-purine-2,8-diamine] | 100 to 200 |
| CC(C)(C)Nc1ncc2nc(Nc3cccc(C(F)(F)F)c3)n(CCC3CCCN3)c2n1 (stereo not shown) [Cpd 19, N2-tert-butyl-9-(2-(pyrrolidin-2-yl)ethyl)-N8-(3-(trifluoromethyl)phenyl)-9H-purine-2,8-diamine] | 200 to 500 |
| CC(C)(C)Nc1ncc2nc(Nc3cccc(C(F)(F)F)c3)n(C3CC4CNCC4C3)c2n1 (stereo not shown) [Cpd 95, N2-tert-butyl-9-(octahydrocyclopenta[c]pyrrol-5-yl)-N8-(3-(trifluoromethyl)phenyl)-9H-purine-2,8-diamine] | 200 to 500 |
| CC(C)(C)Nc1ncc2nc(Nc3cccc(C(F)(F)F)c3)n(CC3CCNCC3)c2n1 [Cpd 23, N2-tert-butyl-9-(piperidin-4-ylmethyl)-N8-(3-(trifluoromethyl)phenyl)-9H-purine-2,8-diamine] | 500 to 1200 |
| CC(N)CCn1c(Nc2cc(Cl)cc(C(F)(F)F)c2)nc2cnc(NC3CCCC3)nc21 (stereo not shown) [Cpd 111, 9-(3-aminobutyl)-N8-(3-chloro-5-(trifluoromethyl)phenyl)-N2-cyclopentyl-9H-purine-2,8-diamine] | 100 to 200 |

Further lines, results first:

| IC50 [nM] | SMILES |
| --- | --- |
| 100 to 200 | Fc1cc(Cl)cc(Nc2nc3cnc(NC4CC4)nc3n2C2CCNCC2)c1 [Cpd 62, N8-(3-chloro-5-fluorophenyl)-N2-cyclopropyl-9-(piperidin-4-yl)-9H-purine-2,8-diamine] |
| < 100 | CC(C)(C)Nc1ncc2nc(Nc3cccc(C(F)(F)F)c3)n(C3CCNCC3)c2n1 [Cpd 3, N2-tert-butyl-9-(piperidin-4-yl)-N8-(3-(trifluoromethyl)phenyl)-9H-purine-2,8-diamine] |
| < 100 | CC1(Nc2ncc3nc(Nc4cc(F)cc(Cl)c4)n(C4CCNCC4)c3n2)CC1 [Cpd 64, N8-(3-chloro-5-fluorophenyl)-N2-(1-methylcyclopropyl)-9-(piperidin-4-yl)-9H-purine-2,8-diamine] |
| 100 to 200 | CC1(Nc2ncc3nc(Nc4ccc(Cl)c(C(F)(F)F)c4)n(C4CCNCC4)c3n2)CCCC1 [Cpd 90, N8-(4-chloro-3-(trifluoromethyl)phenyl)-N2-(1-methylcyclopentyl)-9-(piperidin-4-yl)-9H-purine-2,8-diamine] |
| < 100 | FC(F)(F)c1cc(Cl)cc(Nc2nc3cnc(NC4CCCC4)nc3n2C2CCNCC2)c1 [Cpd 53, N8-(3-chloro-5-(trifluoromethyl)phenyl)-N2-cyclopentyl-9-(piperidin-4-yl)-9H-purine-2,8-diamine] |
| < 100 | CC1(Nc2ncc3nc(Nc4cc(Cl)cc(C(F)(F)F)c4)n(C4CCNCC4)c3n2)CCC1 [Cpd 69, N8-(3-chloro-5-(trifluoromethyl)phenyl)-N2-(1-methylcyclobutyl)-9-(piperidin-4-yl)-9H-purine-2,8-diamine] |
| < 100 | FC(F)(F)c1cc(Cl)cc(Nc2nc3cnc(NC4CCC4)nc3n2C2CCNCC2)c1 [Cpd 52, N8-(3-chloro-5-(trifluoromethyl)phenyl)-N2-cyclobutyl-9-(piperidin-4-yl)-9H-purine-2,8-diamine] |
| < 100 | CCN1CCC(n2c(Nc3ccc(Cl)c(Cl)c3)nc3cnc(NC(C)(C)C)nc32)CC1 [Cpd 37, N2-tert-butyl-N8-(3,4-dichlorophenyl)-9-(1-ethylpiperidin-4-yl)-9H-purine-2,8-diamine] |
| < 100 | CC(C)(C)Nc1ncc2nc(Nc3cccc(C(F)(F)F)c3)n(C3CCN(CCN)CC3)c2n1 [Cpd 4, 9-(1-(2-aminoethyl)piperidin-4-yl)-N2-tert-butyl-N8-(3-(trifluoromethyl)phenyl)-9H-purine-2,8-diamine] |
| < 100 | CC1(Nc2ncc3nc(Nc4cc(Cl)cc(Cl)c4)n(C4CCNCC4)c3n2)CCOCC1 [Cpd 61, N8-(3,5-dichlorophenyl)-N2-(4-methyltetrahydro-2H-pyran-4-yl)-9-(piperidin-4-yl)-9H-purine-2,8-diamine] |

Same assay, conditions: Erythrocyte, read-out: Act Class (IC50 activity level)

| SMILES | IC50 [nM] |
| --- | --- |
| CC(C)(C)Nc1ncc2nc(Nc3cc(Cl)cc(C(F)(F)F)c3)n(CC3CCNC3)c2n1 (stereo not shown) [Cpd 98, N2-tert-butyl-N8-(3-chloro-5-(trifluoromethyl)phenyl)-9-(pyrrolidin-3-ylmethyl)-9H-purine-2,8-diamine] | 200 to 500 |
